Results from article PMC6753678, “Fueling Open Innovation for Malaria Transmission-Blocking Drugs: Hundreds of Molecules Targeting Early Parasite Mosquito Stages” (Frontiers in Microbiology, 2019).

Experiments:
[1] = test system: P. falciparum female gametocytes; parameters: method as in Miguel-Blanco et al 2017; details: TCAMS library screen; ref Miguel-Blanco et al 2017; read-out: Pf FGAA IC50; cited from earlier work
HepG2 cells = details: HepG2 value reported with Pf FGAA screen; ref Miguel-Blanco et al 2017; cited from earlier work
[2] = test system: P. falciparum female gametocytes; experiment: P. falciparum female gametogenesis assay (Pf FGAA); details: 1: YES; 0: NO

Structure (SMILES) | IC50 [1] | HepG2 cytoxicity (Pf FGAA screen) (HepG2 cells) | Is compound selective in assay? Pf FGAA active? [2]
CN(C)c1ccc(-c2csc(C(=O)NCC3CCN(Cc4ccc(C(C)(C)C)cc4)C3)c2)cc1.O=C(O)C(F)(F)F (stereo not drawn) [TCMDC-134449] | 600 nM | 7.24 µM | 1 (1: YES)
O=C(NCC1CCN(Cc2cccc(C(F)(F)F)c2)C1)c1cc(-c2cccc(C(F)(F)F)c2)cs1.O=C(O)C(F)(F)F (stereo not drawn) [TCMDC-134483] | 1650 nM | 16.22 µM | 0 (0: NO)
O=C(NCC1CCN(Cc2cccc(C(F)(F)F)c2)C1)c1cc(-c2cccc(F)c2)cs1.O=C(O)C(F)(F)F (stereo not drawn) [TCMDC-134484] | 2260 nM | 18.87 µM | 0 (0: NO)
O=C(NCC1CCN(Cc2cccc(C(F)(F)F)c2)C1)c1cc(-c2cccc(Cl)c2)cs1.O=C(O)C(F)(F)F (stereo not drawn) [TCMDC-134485] | 890 nM | 16.03 µM | 1 (1: YES)
CN(C)c1ccc(-c2csc(C(=O)NCC3CCN(Cc4cccc(C(F)(F)F)c4)C3)c2)cc1.O=C(O)C(F)(F)F (stereo not drawn) [TCMDC-134486] | 1560 nM | 8.18 µM | 0 (0: NO)
N#Cc1ccc(-c2ccc(C(=O)NCC3CCN(CCN4CCC(c5ccc6c(c5OCC(N)=O)CCCC6)CC4)CC3)cc2)cc1 [TCMDC-134563] | 1260 nM | 6.17 µM | 0 (0: NO)
NCCCCNc1cc(-c2ccnc(Nc3cccc(Cl)c3)n2)ccn1 [TCMDC-134683] | 1460 nM | 0.67 µM | 0 (0: NO)
O=C(O)C(F)(F)F.O=c1[nH]ccc2nc(N[C@@H]3CCNC3)nc(Nc3cc(Cl)cc(Cl)c3)c12 [TCMDC-135052] | 740 nM | 4.79 µM | 0 (0: NO)
NCCCNc1nc(Nc2ccc(C(F)(F)F)cc2F)c2c(=O)[nH]ccc2n1.O=C(O)C(F)(F)F [TCMDC-135056] | 1600 nM | 9.30 µM | 0 (0: NO)
COc1ccccc1CNc1ccnc(N2CC(Oc3ccc(F)cc3)C2)n1 [TCMDC-135118] | 4070 nM | 73.68 µM | 1 (1: YES)
CC(C)(C)OC(=O)NCc1ccc(Nc2nnc(-c3cccc(C(=O)NCc4cc(C(F)(F)F)cc(C(F)(F)F)c4)c3)o2)cc1 [TCMDC-135229] | 3140 nM | 21.43 µM | 0 (0: NO)
CN1CCN(Cc2ccc(-c3cc4c(Nc5ccc(OCc6cccc(F)c6)c(Cl)c5)ncnc4s3)[nH]2)CC1 [TCMDC-135458] | 2410 nM | 10.98 µM | 0 (0: NO)
CC(C)N1CCN(C(CN2CCN(CCCOc3ccc(-c4ccccc4)cc3)CC2)c2ccc(F)cc2)CC1.Cl (stereo not drawn) [TCMDC-135497] | 1420 nM | 2.29 µM | 0 (0: NO)
CC(C)N1CCN(C(CN2CCN(CCCOc3ccccc3-c3ccccc3)CC2)c2ccc(F)cc2)CC1.Cl (stereo not drawn) [TCMDC-135499] | 1410 nM | 4.32 µM | 0 (0: NO)
COc1ccc2ccccc2c1CCCCN1CCN(CC(c2ccc(F)cc2)N2CCC2)CC1.O=C(O)C(F)(F)F (stereo not drawn) [TCMDC-135867] | 5860 nM | 4.37 µM | 0 (0: NO)
COc1cc(/C=C(\C2=NC(=O)CS2)c2nc3cccnc3n2C)ccc1O [TCMDC-135917] | 720 nM | 21.14 µM | 1 (1: YES)
CCn1c(-c2nonc2N)nc2c(-c3cccc(NC(=O)Nc4ccc(Cl)cc4)c3)ncc(OCCCN)c21.O=C(O)C(F)(F)F [TCMDC-136152] | 1700 nM | 10.96 µM | 0 (0: NO)
CCn1c(-c2nonc2N)nc2c(-c3cccc(NC(=O)Nc4ccc(C(F)(F)F)cc4)c3)ncc(OCCCN)c21.O=C(O)C(F)(F)F [TCMDC-136179] | 910 nM | 5.62 µM | 0 (0: NO)

Structure (SMILES) | IC50 [1] | HepG2 cytoxicity (Pf FGAA screen) (HepG2 cells) | Is compound selective in assay? Pf FGAA active? [2]
CCn1c(-c2nonc2N)nc2c(-c3cccc(NC(=O)Nc4ccc5c(c4)CCC5)c3)ncc(OCCCN)c21.O=C(O)C(F)(F)F [TCMDC-136191] | 1030 nM | 7.42 µM | 0 (0: NO)
CCn1c(-c2nonc2N)nc2c(-c3cccc(NC(=O)NC45CC6CC(CC(C6)C4)C5)c3)ncc(OCCCN)c21.O=C(O)C(F)(F)F [TCMDC-136246] | 1360 nM | 6.10 µM | 0 (0: NO)
CN(C)CCCNCc1cn(S(=O)(=O)c2ccccc2Cl)c2ccccc12.Cl [TCMDC-136302] | 1840 nM | 11.78 µM | 0 (0: NO)
Cc1noc(C)c1-c1ccc2c(Nc3nccc4ccccc34)c(C(N)=O)cnc2c1 [TCMDC-136456] | 1540 nM | 3.85 µM | 0 (0: NO)
Cc1cc(C(F)(F)F)cc(-n2ncc(-c3ccc(C(=O)NCc4ccccc4N)cc3)c2N)n1.O=C(O)C(F)(F)F [TCMDC-136658] | 1460 nM | 26.82 µM | 1 (1: YES)
CN1CCN(Cc2ccc(OCc3cccc(COc4ccc(CN5CCN(C)CC5)cc4I)c3)c(I)c2)CC1.Cl [TCMDC-137239] | 1850 nM | 5.01 µM | 0 (0: NO)
CCCCN(CCCC)CCCCNc1c2ccc(Cl)cc2nc2ccc(OC)cc12.Cl [TCMDC-137460] | 1970 nM | 4.73 µM | 0 (0: NO)
COc1cc(CNCCCCCCNCc2cc(OC)c3ccccc3c2OC)c(OC)c2ccccc12.CS(=O)(=O)O [TCMDC-137502] | 1670 nM | 3.67 µM | 0 (0: NO)
Clc1ccc(/N=C(/NCCCCCCCN/C(=N\c2ccc(Cl)cc2)Nc2ccc(Cl)cc2)Nc2ccc(Cl)cc2)cc1 [TCMDC-137529] | 580 nM | 2.00 µM | 0 (0: NO)
CC(CO)(CO)NCc1cc2c3ccccc3c(CNC(C)(CO)CO)cc2c2ccccc12.CS(=O)(=O)O [TCMDC-137752] | 4420 nM | 7.33 µM | 0 (0: NO)
Clc1ccc(Nc2nc3ccc(Cl)cc3nc2Nc2ccc(Cl)cc2)cc1 [TCMDC-137772] | 1910 nM | 7.86 µM | 0 (0: NO)
Clc1nc(Cl)c2c(ccn2Cc2ccccc2)n1 [TCMDC-137801] | 1460 nM | >100 µM | 1 (1: YES)
CCCCSc1c(CNCCCCCCNCc2ccc3ccccc3c2SCCCC)ccc2ccccc12.CS(=O)(=O)O [TCMDC-137825] | 970 nM | 2.76 µM | 0 (0: NO)
COc1c(CNCCCCCCNCc2c(OC)c(OC)c3ccccc3c2OC)c(OC)c2ccccc2c1OC.CS(=O)(=O)O [TCMDC-137837] | 3690 nM | 4.42 µM | 0 (0: NO)
Nc1nc(N)c2c(ccc3[nH]c(-c4ccccc4Cl)nc32)n1 [TCMDC-137840] | 4420 nM | 2.32 µM | 0 (0: NO)
CCOc1cc2ccccc2cc1CNCCCCCCNCc1cc2ccccc2cc1OCC.CS(=O)(=O)O [TCMDC-137940] | 1290 nM | 6.06 µM | 0 (0: NO)
COc1cc2c(OC)cccc2cc1CNCCCCCCNCc1cc2cccc(OC)c2cc1OC.CS(=O)(=O)O [TCMDC-137945] | 1820 nM | 4.90 µM | 0 (0: NO)
CCCOc1c(CCNCCCCNCCc2ccc3ccccc3c2OCCC)ccc2ccccc12.CS(=O)(=O)O [TCMDC-137950] | 640 nM | 1.72 µM | 0 (0: NO)
